In patent US20160051526A1, “The Local Treatment of Inflammatory Ophthalmic Disorders” (CRESSET BIOMOLECULAR DISCOVERY LTD, priority 2013, published 2016):

Legend:
[1] = system: Human cord derived mast cells; assay: Inhibition of Prostaglandin D2 release from human mast cells; format: cell-based; conditions: IgE challenged human cord derived mast cells; FIG. 2
Protocol: Human cord derived mast cells were cultured using the methodology described in Example 1. A commercially-available enzyme immunoassay (Cayman Chemical, Michigan, USA) was used to detect and quantify PGD2 released in the supernatant. The assay was conducted following the manufacturer's standard protocols. A standard curve ranging from 78-10,000 pg/ml PGD2 was prepared using the reagent provided and the optical density was then read within 60 min in a microplate reader (at 405 nm).

[2] = system: Mice (Balb/C strain); assay: Murine model of allergic conjunctivitis (ragweed pollen); format: in vivo, mouse; conditions: 40 μl of a 2% solution twice daily to the eye
Protocol: Mice (Balb/C strain) were sensitised to ragweed pollen by injection of the extract mixed with alum into the hind paw. A control group was immunised with alum alone. Five animals were used in each group.
Eleven days after the initial immunisation with ragweed pollen extract the mice were challenged daily with Ragweed pollen by application to the eye (150 mg/ml antigen) and dosed twice daily (prior and after challenge with ragweed extract) with either Phosphate buffered saline (PBS, control) or 40 μl of a 2% solution of Nalidixic acid. All applications were to the left eye with the right eye acting as a control.
Conjunctivitis was assessed on the 10th day 1 hour after the final application of the ragweed antigen. This assessment was performed by an operator unaware of the dosing protocol for the animals.
Clinical scores of each group were compared statistically using the non-parametric Kruskal-Wallis test with Dunns multiple comparison test correction applied (FIG. 4).
In addition, histological analysis of sections of the conjunctiva was used to assess the number of migrating eosinophils into the tissue, a key measure of the inflammatory process.

[3] = system: male C57BL/6 mice; assay: Murine model of endotoxin induced uveitis; format: in vivo, mouse; conditions: 0.1 μg intravitreal co-injected with LPS; about 15 hours after endotoxin; FIG. 5
Protocol: The efficacy of locally applied Nalidixic acid as a potential treatment for uveitis was explored. Experimental uveitis was induced in male C57BL/6 mice (n=5 animals per group) by the intravitreal injection of the endotoxin lipopolysaccharide (LPS 0.5 ng/ml) co-injected with either vehicle (phosphate buffered saline) or Nalidixic acid at a final concentration of 0.1 μg into alternate eyes. The other eye acting as control. The inflammatory response in this model is characterised by invasion of inflammatory cells and in particular invasion of neutrophils into the retina peaks at approximately 15 hours after endotoxin treatment at which time the animals were culled. Retinas from the animals were dissected and digested into a single cell suspension. Cell numbers from retinal tissue were measured by fluorescence-activated cell sorting (FACS) analysis.

[4] = system: Human derived cord mast cells; assay: Inhibition of histamine release from human mast cells; format: cell-based; conditions: IgE challenged human cord derived mast cells, 5 min incubation; FIG. 1
Protocol: Protocol: Human derived cord mast cells were cultured using the following method. Commercially available CD34^+ stem cells were cultured for […] in StemSpan (StemCell Technologies, Grenoble, France) serum-free medium supplemented with 100 ng/ml human SCF, 50 ng/ml IL-6 and 1 ng/ml IL-3, and 100 μg/ml penicillin/streptomycin (Peprotech, London, UK). After eight weeks, cells were cultured in StemSpan with 10% FCS. The cells were passaged into new medium every week. Cells were used for experiments between 11 and 18 weeks following confirmation by microscopic examination, c-kit and FcRε1 staining (by FACS), of mast cell morphology. For assessment of drug effects, Nalidixic acid was incubated for 5 min with aliquots of 2×10^5 CDMCs (cord derived mast cells) cultured in 10% FCS medium. A commercially-available enzyme immunoassay was used to detect and quantify histamine released in the supernatant (SPI bio, Strasbourg, France). The assay was conducted following the manufacturer's standard protocols. A standard curve ranging from 0.39-50 nM histamine was prepared using the reagent provided and the optical density was then read within 60 min in a microplate reader (at 405 nm). In some cases, the total cell content of histamine was established by freeze thawing of cells prior to challenge.

[5] = system: phosphatase PP2A; assay: Inhibition of the phosphatase PP2A; format: biochemical; conditions: statement in summary, no method or data given
[6] = system: Human cord derived mast cells; assay: Release of Annexin-A1 from human mast cells (ELISA); format: cell-based; conditions: increasing concentrations, conditioned medium, FIG. 3
Protocol: Human cord derived mast cells were cultured using the methodology described in Example 1. Anx-A1 protein levels in conditioned medium were determined by ELISA. Briefly, 96-well flat-bottomed ELISA plates (Greiner, Gloucestershire, UK) were coated with 1 μg anti-Anx-A1 mAb 1B in bicarbonate buffer (pH 9.6) and incubated overnight at 4° C. After washing in the bicarbonate buffer, potentially uncoated sites were blocked with 100 μL of PBS containing 1% BSA for 1 h at room temperature. Sample aliquots (100 μL) or Anx-A1 standard solutions (prepared in 0.1% Tween-20 in PBS; concentration ranging between 10 and 0.001 μg/mL) were added for 1 h at 37° C. After extensive washing in PBS/Tween-20, 100 μL of a polyclonal rabbit anti-human Anx-A1 serum (Zymed, Invitrogen, Paisley, UK; diluted 1:1000 in PBS/Tween-20) was added (1 h at 37° C.) prior to incubation with donkey anti-rabbit 1 gG conjugated to alkaline phosphatase (1:1000; Sigma). The colour was developed by addition of 100 μL p-nitrophenyl phosphate (1 mg/mL in bicarbonate buffer, pH 9.6). Absorbance was read at 405 nm (with a 620-nm reference filter) in a microplate reader (TitertekTM, Vienna, Austria). Anx-A1 levels in the study samples were read against the standard curve and expressed as ng/ml.

Which “inhibition of the inflammatory prostanoid PGD2 release” value [1] does the source give for `CCn1cc(C(=O)O)c(=O)c2ccc(C)nc21` [Nalidixic acid] here?
The value was “dose related inhibition”.

And the “clinical scores of conjunctivitis” value ([2]; assessed 10th day, 1 hour after final ragweed challenge, FIG. 4)?
The value was “significant attenuation of the development of conjunctivitis”.

What about the “number of migrating eosinophils in conjunctival tissue (histology)” value ([2]; p<0.001 vs immunised PBS control) of the same compound?
Its value is “no migrating eosinophils”.

What about the “invading neutrophils in retinal tissue (FACS)” value [3] of the same compound?
Its value is “clear reduction in invading neutrophils”.

What about the “inhibition of the inflammatory mediator histamine (% net histamine release)” value [4] of the same compound?
The value was “dose related inhibition”.

And the “inhibition of the phosphatase PP2A” value [5]?
The value was “potent inhibitors”.

What about the “Annexin-A1 released from human mast cells” value [6] of the same compound?
Its value is “increase”.
